Laboratory results as given in ChEMBL document CHEMBL1201862, “PubChem BioAssay data set” (2004).
Activity calls are given as the source filed them.

Tests used:
[1] = intracellular Trypanosoma cruzi inhibitors in host cells – cell-based, plate reader, cherry-pick samples, set 3, dose response (AID 651818); format: functional;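 also: compounds incubated with infected cells for about four days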
[2] = biological target: Voltage-dependent T-type calcium channel subunit alpha-1H (Homo sapiens, UniProt O95180); format: functional;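 also: channel activity triggered by adding a high calcium stimulation buffer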
Sequence of Voltage-dependent T-type calcium channel subunit alpha-1H (O95180 whole entry): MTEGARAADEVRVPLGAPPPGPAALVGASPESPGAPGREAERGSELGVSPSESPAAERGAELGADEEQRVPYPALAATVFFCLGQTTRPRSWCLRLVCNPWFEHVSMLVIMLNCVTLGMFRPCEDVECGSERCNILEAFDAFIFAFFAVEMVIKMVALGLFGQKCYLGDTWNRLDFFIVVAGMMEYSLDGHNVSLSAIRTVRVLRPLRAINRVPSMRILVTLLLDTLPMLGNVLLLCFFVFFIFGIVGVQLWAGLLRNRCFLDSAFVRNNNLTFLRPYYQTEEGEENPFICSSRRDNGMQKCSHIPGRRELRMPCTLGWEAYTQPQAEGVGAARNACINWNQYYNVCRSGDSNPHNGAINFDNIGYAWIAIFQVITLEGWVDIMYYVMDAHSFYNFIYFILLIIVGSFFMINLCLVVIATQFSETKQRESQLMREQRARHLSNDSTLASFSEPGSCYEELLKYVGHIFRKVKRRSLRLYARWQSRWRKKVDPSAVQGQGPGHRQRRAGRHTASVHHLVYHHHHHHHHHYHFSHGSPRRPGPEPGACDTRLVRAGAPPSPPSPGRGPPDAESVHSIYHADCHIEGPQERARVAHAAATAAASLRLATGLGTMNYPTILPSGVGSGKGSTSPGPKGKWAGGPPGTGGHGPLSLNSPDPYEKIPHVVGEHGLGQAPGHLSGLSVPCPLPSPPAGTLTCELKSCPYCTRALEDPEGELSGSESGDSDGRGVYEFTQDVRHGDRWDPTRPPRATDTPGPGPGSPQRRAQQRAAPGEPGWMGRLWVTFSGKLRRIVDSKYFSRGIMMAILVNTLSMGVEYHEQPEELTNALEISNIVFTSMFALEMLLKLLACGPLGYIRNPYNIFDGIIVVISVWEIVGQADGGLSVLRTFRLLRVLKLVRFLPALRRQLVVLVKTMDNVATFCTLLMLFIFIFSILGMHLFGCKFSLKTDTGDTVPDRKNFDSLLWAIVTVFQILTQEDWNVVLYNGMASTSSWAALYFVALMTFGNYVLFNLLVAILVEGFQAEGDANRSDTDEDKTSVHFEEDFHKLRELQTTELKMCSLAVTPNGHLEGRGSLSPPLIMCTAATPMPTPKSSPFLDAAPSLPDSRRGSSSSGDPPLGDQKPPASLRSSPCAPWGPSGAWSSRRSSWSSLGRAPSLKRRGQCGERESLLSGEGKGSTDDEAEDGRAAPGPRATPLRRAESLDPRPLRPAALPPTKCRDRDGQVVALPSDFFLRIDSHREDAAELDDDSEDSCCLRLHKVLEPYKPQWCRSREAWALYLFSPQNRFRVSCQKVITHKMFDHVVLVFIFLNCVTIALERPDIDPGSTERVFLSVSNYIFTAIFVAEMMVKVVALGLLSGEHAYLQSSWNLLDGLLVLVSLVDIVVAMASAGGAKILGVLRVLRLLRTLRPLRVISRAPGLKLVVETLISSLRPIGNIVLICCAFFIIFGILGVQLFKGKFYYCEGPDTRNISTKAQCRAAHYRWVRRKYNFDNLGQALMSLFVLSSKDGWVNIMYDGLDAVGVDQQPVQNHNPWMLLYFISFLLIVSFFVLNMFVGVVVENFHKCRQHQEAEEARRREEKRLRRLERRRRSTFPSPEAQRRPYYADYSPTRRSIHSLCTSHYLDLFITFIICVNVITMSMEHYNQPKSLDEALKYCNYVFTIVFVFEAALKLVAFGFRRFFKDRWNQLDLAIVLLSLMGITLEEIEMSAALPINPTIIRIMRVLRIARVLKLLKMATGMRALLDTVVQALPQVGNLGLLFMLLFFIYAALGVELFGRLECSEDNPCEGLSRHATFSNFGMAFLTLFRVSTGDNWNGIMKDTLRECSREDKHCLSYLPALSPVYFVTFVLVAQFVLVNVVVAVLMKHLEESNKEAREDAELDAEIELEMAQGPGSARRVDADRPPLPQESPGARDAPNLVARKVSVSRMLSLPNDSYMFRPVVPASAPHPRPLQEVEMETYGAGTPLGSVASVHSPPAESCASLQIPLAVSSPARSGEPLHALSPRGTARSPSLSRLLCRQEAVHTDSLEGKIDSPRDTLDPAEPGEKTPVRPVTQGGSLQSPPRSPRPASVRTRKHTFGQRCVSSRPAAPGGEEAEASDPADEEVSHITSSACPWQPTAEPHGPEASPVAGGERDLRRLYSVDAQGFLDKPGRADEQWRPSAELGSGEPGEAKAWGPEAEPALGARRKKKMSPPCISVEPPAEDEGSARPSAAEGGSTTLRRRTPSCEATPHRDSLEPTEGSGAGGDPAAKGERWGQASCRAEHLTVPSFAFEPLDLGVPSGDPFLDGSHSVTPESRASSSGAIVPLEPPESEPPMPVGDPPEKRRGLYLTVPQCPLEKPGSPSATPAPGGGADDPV

[3] = biological target: T1, Adenosylmethionine-8-amino-7-oxononanoate aminotransferase (Mycobacterium tuberculosis, UniProt P9WQ81); test: Mycobacterium tuberculosis BioA enzyme inhibitor Measured in Biochemical System Using Plate Reader - 2163-02_Inhibitor_Dose_CherryPick_Activity.; format: functional, Mycobacterium tuberculosis UT205
T1 sequence (P9WQ81 whole entry): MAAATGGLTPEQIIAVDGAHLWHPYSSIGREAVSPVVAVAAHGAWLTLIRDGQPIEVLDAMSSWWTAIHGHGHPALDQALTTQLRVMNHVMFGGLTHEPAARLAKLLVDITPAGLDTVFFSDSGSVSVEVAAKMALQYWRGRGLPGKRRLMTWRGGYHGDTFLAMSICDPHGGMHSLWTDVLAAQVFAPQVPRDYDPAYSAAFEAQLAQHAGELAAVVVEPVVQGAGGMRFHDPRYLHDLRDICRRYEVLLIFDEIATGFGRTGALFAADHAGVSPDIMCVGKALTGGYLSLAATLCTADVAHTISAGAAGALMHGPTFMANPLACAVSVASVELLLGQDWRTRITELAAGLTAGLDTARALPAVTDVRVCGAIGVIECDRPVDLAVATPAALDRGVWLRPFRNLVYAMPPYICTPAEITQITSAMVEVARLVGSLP

[4] = inhibitors of SNCA 5'UTR-driven reporter translation, confirmation, H4 neuroglioma cells, luminescence (AID 1988); format: functional, cell-based
Fatty acid synthase [5] = biological target: T2, Fatty acid synthase (Homo sapiens, UniProt P49327); test: FAS thioesterase domain inhibitors, dose response, biochemical, kinetic fluorescence intensity (AID 624326); format: functional;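 also: rate of fluorescence rise from hydrolysis of a fluorogenic O-methyl fluorescein ester substrate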
T2 sequence (P49327 whole entry, the tested form may be a part): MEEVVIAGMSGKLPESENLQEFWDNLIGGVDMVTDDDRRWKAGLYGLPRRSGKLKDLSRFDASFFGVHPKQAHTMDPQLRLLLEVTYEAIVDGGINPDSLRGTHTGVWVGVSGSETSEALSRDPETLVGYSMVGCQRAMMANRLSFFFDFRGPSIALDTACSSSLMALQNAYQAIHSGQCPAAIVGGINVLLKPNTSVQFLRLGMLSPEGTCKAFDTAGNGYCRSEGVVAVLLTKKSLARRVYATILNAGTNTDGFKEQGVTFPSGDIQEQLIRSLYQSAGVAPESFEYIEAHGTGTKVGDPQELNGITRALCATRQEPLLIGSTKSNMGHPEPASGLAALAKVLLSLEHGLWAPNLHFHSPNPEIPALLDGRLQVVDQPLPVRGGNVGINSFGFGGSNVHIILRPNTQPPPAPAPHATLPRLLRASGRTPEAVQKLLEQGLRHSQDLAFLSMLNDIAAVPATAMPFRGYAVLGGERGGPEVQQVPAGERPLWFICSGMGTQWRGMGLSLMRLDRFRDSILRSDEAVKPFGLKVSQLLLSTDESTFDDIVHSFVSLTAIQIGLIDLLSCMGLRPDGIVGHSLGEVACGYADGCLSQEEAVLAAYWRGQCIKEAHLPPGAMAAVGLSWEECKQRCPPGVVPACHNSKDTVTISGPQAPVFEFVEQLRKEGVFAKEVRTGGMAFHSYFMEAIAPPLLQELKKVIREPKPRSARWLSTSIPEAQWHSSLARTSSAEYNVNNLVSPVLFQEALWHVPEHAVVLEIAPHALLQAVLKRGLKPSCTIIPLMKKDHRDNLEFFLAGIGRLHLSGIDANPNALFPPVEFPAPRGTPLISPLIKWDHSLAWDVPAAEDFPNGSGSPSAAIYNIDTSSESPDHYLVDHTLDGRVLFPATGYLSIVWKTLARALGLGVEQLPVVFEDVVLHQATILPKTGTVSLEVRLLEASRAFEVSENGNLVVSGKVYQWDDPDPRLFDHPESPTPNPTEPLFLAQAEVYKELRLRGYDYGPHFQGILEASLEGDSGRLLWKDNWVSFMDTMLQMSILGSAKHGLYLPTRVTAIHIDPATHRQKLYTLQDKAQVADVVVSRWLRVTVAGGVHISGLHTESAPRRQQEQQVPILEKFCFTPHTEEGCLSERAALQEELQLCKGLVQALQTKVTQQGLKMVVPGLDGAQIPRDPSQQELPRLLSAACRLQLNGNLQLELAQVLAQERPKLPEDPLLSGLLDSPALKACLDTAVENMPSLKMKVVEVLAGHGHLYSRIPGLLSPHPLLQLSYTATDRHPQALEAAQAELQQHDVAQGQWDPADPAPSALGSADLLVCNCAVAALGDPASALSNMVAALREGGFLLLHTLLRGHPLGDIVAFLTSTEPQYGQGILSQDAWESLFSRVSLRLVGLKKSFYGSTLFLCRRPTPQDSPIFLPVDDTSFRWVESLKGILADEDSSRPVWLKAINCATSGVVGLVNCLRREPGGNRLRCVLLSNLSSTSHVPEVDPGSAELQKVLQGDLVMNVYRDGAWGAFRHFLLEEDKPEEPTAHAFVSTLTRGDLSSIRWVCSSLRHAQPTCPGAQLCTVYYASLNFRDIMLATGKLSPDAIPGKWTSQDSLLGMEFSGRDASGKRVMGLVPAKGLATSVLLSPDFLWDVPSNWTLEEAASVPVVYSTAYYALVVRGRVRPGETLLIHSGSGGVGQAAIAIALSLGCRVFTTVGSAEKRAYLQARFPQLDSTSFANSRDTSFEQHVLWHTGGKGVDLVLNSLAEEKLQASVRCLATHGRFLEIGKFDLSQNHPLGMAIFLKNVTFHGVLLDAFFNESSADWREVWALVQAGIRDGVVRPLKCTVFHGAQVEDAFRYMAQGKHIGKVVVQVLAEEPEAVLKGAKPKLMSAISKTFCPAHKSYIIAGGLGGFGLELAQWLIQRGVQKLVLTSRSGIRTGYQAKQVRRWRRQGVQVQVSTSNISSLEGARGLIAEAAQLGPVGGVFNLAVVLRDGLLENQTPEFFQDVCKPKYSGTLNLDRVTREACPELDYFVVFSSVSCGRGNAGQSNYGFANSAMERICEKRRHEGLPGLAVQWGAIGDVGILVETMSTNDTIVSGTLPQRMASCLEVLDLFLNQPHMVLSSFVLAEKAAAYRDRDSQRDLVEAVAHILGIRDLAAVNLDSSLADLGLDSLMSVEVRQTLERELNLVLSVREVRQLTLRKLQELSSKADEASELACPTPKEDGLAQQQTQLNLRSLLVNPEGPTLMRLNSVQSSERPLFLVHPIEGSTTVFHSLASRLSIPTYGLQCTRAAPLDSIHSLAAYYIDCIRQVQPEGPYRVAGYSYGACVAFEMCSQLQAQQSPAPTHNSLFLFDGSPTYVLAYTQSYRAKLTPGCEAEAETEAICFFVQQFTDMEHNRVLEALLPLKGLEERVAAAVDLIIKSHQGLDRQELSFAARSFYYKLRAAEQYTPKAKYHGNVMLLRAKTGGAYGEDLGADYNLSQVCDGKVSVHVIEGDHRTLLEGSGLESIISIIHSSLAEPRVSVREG

Fatty acid synthase [6] = biological target: T2, Fatty acid synthase; test: FAS thioesterase domain inhibitors, dose response, biochemical, endpoint fluorescence intensity, uHTS hits (AID 624327); format: functional;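 also: fluorescence from hydrolysis of an O-methyl fluorescein acyl ester substrate by the enzyme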
[7] = Luminescence Cell-Based Dose Response HTS to Identify Inhibitors of 5'UTR Stem-Loop Driven Prion Protein mRNA Translation in H4 Neuroglioblastoma Cells. [Related pubchem assays: 1827 (Project Summary), 1813 (Primary HTS)]; format: functional
[8] = inhibitors of firefly luciferase expression or activity, dose response, H4 neuroglioma cells, luminescence (AID 1990); format: functional, cell-based
[9] = biological target: T3, Ubiquitin-conjugating enzyme E2 N (Homo sapiens, UniProt P61088); format: functional;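 also: Dose-response confirmation in a TR-FRET assay detecting UBC13-driven polyubiquitin chain formation, inhibition measured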
T3 sequence (P61088 whole entry): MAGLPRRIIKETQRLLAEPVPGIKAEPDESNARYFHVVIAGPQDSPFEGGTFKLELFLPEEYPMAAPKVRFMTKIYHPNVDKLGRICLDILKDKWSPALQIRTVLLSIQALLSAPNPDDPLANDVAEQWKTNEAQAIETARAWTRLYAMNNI

[10] = Luminescence Cell-Based Dose Retest to Confirm Inhibitors of Cancer Stem Cells. [Related pubchem assays (depositor defined):AID2717, AID2721]; format: functional; settings: Homo sapiens
[11] = Luminescence-based cell-based high throughput dose response assay to identify activators of the DAF-12 from the parasite S. stercoralis (ssDAF-12).; format: functional
[12] = NIH-3T3 fibroblast cytotoxicity, dose response, cytotoxicity control, cell-based, fluorescence, Alamar Blue, secondary assay (AID 2327); format: functional;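 also: NIH-3T3 mouse fibroblasts cultured with fluconazole at 8 µg/mL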
[13] = C. albicans growth with fluconazole, confirmation, fluorescence, retest (AID 2467); format: functional, cell-based
BJ [14] = test: cytotoxicity toward BJ-TERT-LT-ST fibroblasts, dose response, cell-based, RAS-independent, luminescence (AID 1935); format: functional; settings: Homo sapiens;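 also: BJ fibroblasts immortalized with TERT plus LT and ST oncogenes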
BJ [15] = test: cytotoxicity toward BJ-TERT fibroblasts, dose response, cell-based, RAS-independent, luminescence (AID 1933); format: functional; settings: Homo sapiens
BJ [16] = test: cells; format: functional, cell-based; settings: Homo sapiens
[17] = cytotoxicity toward DRD oncogenic fibroblasts, dose response, cell-based, non-viral oncogenic, luminescence (AID 1934); format: functional; settings: Homo sapiens
Protein skinhead-1 = biological target: T4, Protein skinhead-1 (Caenorhabditis elegans, UniProt P34707); format: functional
T4 sequence (P34707 whole entry): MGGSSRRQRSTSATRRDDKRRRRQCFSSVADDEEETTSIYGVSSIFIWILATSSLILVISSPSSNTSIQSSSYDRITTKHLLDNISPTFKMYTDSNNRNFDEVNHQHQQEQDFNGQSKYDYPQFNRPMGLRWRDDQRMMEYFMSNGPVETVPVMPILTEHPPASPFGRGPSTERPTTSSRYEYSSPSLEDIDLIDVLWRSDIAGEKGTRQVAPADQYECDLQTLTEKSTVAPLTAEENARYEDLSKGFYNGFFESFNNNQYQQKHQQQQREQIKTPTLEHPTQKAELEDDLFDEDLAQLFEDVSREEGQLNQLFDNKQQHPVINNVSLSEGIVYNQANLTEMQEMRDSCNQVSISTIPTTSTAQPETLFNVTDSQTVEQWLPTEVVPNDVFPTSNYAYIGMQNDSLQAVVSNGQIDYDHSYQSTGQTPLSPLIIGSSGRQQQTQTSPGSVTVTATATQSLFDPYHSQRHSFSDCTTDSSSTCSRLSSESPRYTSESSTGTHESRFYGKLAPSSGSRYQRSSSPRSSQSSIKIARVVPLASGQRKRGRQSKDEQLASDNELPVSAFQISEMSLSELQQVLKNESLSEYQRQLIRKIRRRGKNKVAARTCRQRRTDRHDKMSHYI

C[C@H]1CN([C@@H](C)CO)C(=O)c2cccc(NC(=O)Nc3ccccc3)c2O[C@H]1CN(C)C(=O)Nc1ccc2c(c1)OCO2
AC50 [1]: 20 µM (inactive)

COc1ccccc1N1CCN(CC(O)COc2cccc3ccccc23)CC1 (stereo not given) [NAFTOPIDIL]
EC50 [2]: 3.72 µM (active)

C[C@@H]1CN([C@H](C)CO)C(=O)c2cc(NC(=O)Nc3ccc4c(c3)OCO4)ccc2O[C@@H]1CN(C)Cc1ccc(-c2ccccc2)cc1
AC50 [1]: 2.72 µM (active)

CCN(Cc1ccccc1)C(=O)CCc1nc(-c2ccc(C)cc2)no1
EC50 [2]: 4.8 µM (active)

O=C(CSc1nnc(-c2ccncc2)n1-c1ccc(Cl)cc1)NCc1cccs1
AC50 [3]: 9.86 µM (active)

O=C(Nc1cccc(F)c1)C1CCN(c2nnnn2-c2ccccc2)CC1
EC50 [2]: 53.6 µM (active)

CCOc1ccc(-n2c(SCc3ccc([N+](=O)[O-])cc3)nnc2-c2ccccc2)cc1
EC50 [4]: 24.9 µM (active) | IC50 (Fatty acid synthase [5]): 5.2 µM (active) | IC50 (Fatty acid synthase [6]): 6.83 µM (active) | EC50 [7]: 69.4 µM (active) | EC50 [8]: 15.5 µM (active)

O=C(CSc1ncn(-c2ccccc2)n1)Nc1ccc(Br)cn1
EC50 [2]: 5.67 µM (active)

COc1cc(OC)cc(-c2sc3ccc(OC)cc3c2C#CC2(N)CCCCC2)c1
IC50 [9]: > 20 µM (inactive) | AC50 [10]: 2.96 µM (active)

CCC(C)(C)NC(=O)CN(C(=O)c1snc(C(N)=O)c1N)c1ccc2c(c1)OCCO2
IC50 [9]: > 20 µM (inactive)

Nc1nc(=O)n(C2CC(O)C(CO)O2)cc1Cl (stereo not given)
IC50 [11]: > 67.6 µM (inactive)

C[C@@H]1CN([C@@H](C)CO)C(=O)Cc2cc(NC(=O)Nc3ccccc3)ccc2O[C@@H]1CN(C)Cc1ccc(C(=O)Nc2ccccc2N)cc1
AC50 [1]: 2.04 µM (active)

C[C@@H]1CN([C@@H](C)CO)C(=O)c2cccc(NS(=O)(=O)c3ccc(Cl)cc3)c2O[C@@H]1CN(C)Cc1ccc(Oc2ccccc2)cc1
AC50 [1]: 4.87 µM (active)

C[C@H](CO)N1C[C@H](C)[C@H](CN(C)Cc2ccc(Cl)c(Cl)c2)Oc2c(NC(=O)c3nc4ccccc4s3)cccc2C1=O
AC50 [1]: 6.38 µM (active)

COc1ccc(-c2nc3cnccn3c2Nc2ccc3c(c2)OCO3)cc1
AC50 [3]: 0.702 µM (active)

O=C(C[n+]1cc(-c2ccc(Cl)cc2)n2c1CCC2)N1c2ccccc2Sc2ccccc21
AC50 [3]: 6.34 µM (active) | EC50 [12]: > 160 µM (inconclusive) | EC50 [13]: > 38 µM (not active)

O=[N+]([O-])c1ccc(Sc2n[nH]c(-c3ccc(Cl)cc3Cl)n2)nc1
IC50 (Fatty acid synthase [5]): 8.25 µM (active) | IC50 (Fatty acid synthase [6]): 7.15 µM (active)

COc1ccc(NC(=O)Nc2ccc3c(c2)CC(=O)N([C@@H](C)CO)C[C@H](C)[C@@H](CN(C)Cc2ccc(C(F)(F)F)cc2)O3)cc1
AC50 [1]: 5.55 µM (active)

NC(=S)N=Nc1c(O)n(CCCl)c2ccc(Br)cc12
IC50 [9]: > 20 µM (inactive)

O=C(COC(=O)c1cc([N+](=O)[O-])ccc1N1CCOCC1)c1ccc(F)cc1
IC50 (Fatty acid synthase [5]): 9.03 µM (active) | IC50 (Fatty acid synthase [6]): 5.45 µM (active)

CCOc1ccc(N(C(=O)c2snc(C(N)=O)c2N)C(C(=O)NCC2CCCO2)c2ccc(C)o2)cc1 (stereo not given)
IC50 [9]: > 20 µM (inactive)

Cc1nc2sc(C(c3ccc(Cl)cc3)N3CCN(c4ccccc4F)CC3)c(O)n2n1 (stereo not given)
AC50 [3]: 1.69 µM (active)

O=C(NCc1ccc(F)cc1)C(C(=O)NCc1ccc(F)cc1)c1ncc(C(F)(F)F)cc1Cl
IC50 (Fatty acid synthase [5]): 11.8 µM (active) | IC50 (Fatty acid synthase [6]): 7.79 µM (active)

CCOc1cc(C2C(C#N)=C(N)OC(C)=C2C(C)=O)c(Br)c(Br)c1OC(C)C (stereo not given)
EC50 (BJ [14]): 2.72 µM (inconclusive) | EC50 (BJ [15]): 2.17 µM (active) | EC50 (BJ [16]): 14 µM (inconclusive) | EC50 [17]: 3.46 µM (active)

O=C(CSc1ccc(Cl)cc1)N1CCN(c2ncc(C(F)(F)F)cc2Cl)CC1
IC50 (Protein skinhead-1): > 100 µM (inactive) | EC50 [2]: 5.86 µM (active)

CC(=O)CSc1nnc(CSc2ncccn2)n1C1CCCCC1
AC50 [3]: 13.9 µM (active)
